US20220057377A1, “ANALYTICAL METHOD FOR DETERMINATION OF IN VITRO DRUG RELEASE PROFILE FROM MICRONEEDLE PATCHES” (ZOSANO PHARMA CORPORATION, priority 2020, published 2022)
Converted amounts (≈) assume the structure as drawn. “And” between values parts separate entries of the source, which are not always exact repeats. Equal values may be shown once. Read-outs that look alike come from different tables or passages of the source.

How the values were obtained:
[1] = Stability of zolmitriptan in 10 mM PBS release media; assay type: physicochemical
Procedure: In order for the drug to have fully released from the patches, a complete release time of 22 hours was noted. Therefore, stability of zolmitriptan in the release medium was evaluated for up to 24 hours.

[2] = cited from earlier work
[3] = Sample solution stability at 2-8° C.; assay type: physicochemical
Procedure: Sample solutions containing the released drug after the drug release tests were stored at 2-8° C. for a few days and injected to check the stability of the solution. Six sample solutions from each time points were aliquoted from release test tube and stored in refrigerator at 2-8 C for 15 days before being analyzed by HPLC. […] For the solution concentration is close to 1×-5× of the quantitation limit, 85%-115% recovery from fresh sample is considered reasonable.

[4] = Solubility of zolmitriptan at room temperature in PBS, water and IPA (in-house); assay type: physicochemical
Procedure: The solubility of zolmitriptan at room temperature in phosphate buffer saline (PBS), water, and isopropyl alcohol (IPA) were evaluated in-house. Zolmitriptan API was added into 200 mL of water, 10 mM phosphate buffer saline (PBS) at pH 7.4, and IPA until saturated. The solutions were then mixed at room temperature by stir bar overnight. Saturated solutions at 2 and 24 hours were filtered and analyzed for drug concentration by HPLC.

Sink condition = assay type: physicochemical
Procedure: The sink condition is defined as having a volume of medium at least three times that required to form a saturated solution of drug substance. […] The microneedle patch is coated with a specific amount (mg) of the bioactive agent and is intended to deliver a certain percentage of the drug. Based on the data from the solubility study described above, the sink condition can be met by various media.
The M207 patch is coated with 1.9 mg of zolmitriptan and is intended to deliver 100% of the drug. The mean drug content specification is 90.0%-110.0% of 1.9 mg. Based on the data from the solubility study, the sink condition was met for both the water and 10 mM PBS medium when applying volume of release medium of >6 mL. This is greater than three times the saturated solution in PBS (˜1.6 mL) for 1.9 mg of zolmitriptan released from the M207 patch.

CN(C)CCc1c[nH]c2ccc(C[C@H]3COC(=O)N3)cc12 [zolmitriptan]
After 24 hours at 32° C. Concentration ([1]; T0 Concentration 0.49 μg/mL): 0.50 µg/mL
After 24 hours at 32° C. Concentration ([1]; T0 Concentration 5.00 μg/mL): 5.02 µg/mL
After 24 hours at 32° C. Concentration ([1]; T0 Concentration 335.94 μg/mL): 335.94 µg/mL
stability in release media ([1]; up to 24 hours at 32° C.): remained stable
volume of solution in which each gram of solute dissolved ([2]; aqueous solution, pH range 4-14): ~10,000 mL
Approximate volume of solvent in mL per gram of solute ([2]; pH 1): From 10 to 30 mL per gram of solute
Descriptive Term (solubility) ([2]; pH 1): Soluble
Approximate volume of solvent in mL per gram of solute ([2]; pH 2): From 100 to 500 mL per gram of solute
Descriptive Term (solubility) ([2]; pH 2): Slightly soluble
Approximate volume of solvent in mL per gram of solute ([2]; pH 3): More than 10,000 mL per gram of solute
Descriptive Term (solubility) ([2]; pH 3): Practically insoluble
Approximate volume of solvent in mL per gram of solute ([2]; pH 4): More than 10,000 mL per gram of solute
Descriptive Term (solubility) ([2]; pH 4): Practically insoluble
Approximate volume of solvent in mL per gram of solute ([2]; pH 7): More than 10,000 mL per gram of solute
Descriptive Term (solubility) ([2]; pH 7): Practically insoluble
Approximate volume of solvent in mL per gram of solute ([2]; pH 14): More than 10,000 mL per gram of solute
Descriptive Term (solubility) ([2]; pH 14): Practically insoluble
solubility in aqueous solution (descriptive) ([2]; pH range 4-14): slightly soluble to very slightly soluble
Drug Amount ([3]; T = 15 days at 2-8 C, 1 hour release time point, Average of 6): 0.22 mg
Drug Amount ([3]; T = 15 days at 2-8 C, 1 hour release time point, individual sample): 0.22 mg and 0.20 mg (2×) and 0.25 mg and 0.23 mg and 0.21 mg
Drug Amount ([3]; T = 15 days at 2-8 C, 2 hours release time point, Average of 6): 0.33 mg
Drug Amount ([3]; T = 15 days at 2-8 C, 2 hours release time point, individual sample): 0.33 mg (3×) and 0.35 mg and 0.32 mg (2×)
Drug Amount ([3]; T = 15 days at 2-8 C, 3 hours release time point, Average of 6): 0.29 mg
Drug Amount ([3]; T = 15 days at 2-8 C, 3 hours release time point, individual sample): 0.29 mg (2×) and 0.31 mg and 0.30 mg and 0.26 mg (2×)
Drug Amount ([3]; T = 15 days at 2-8 C, 5 hours release time point, Average of 6): 0.42 mg
Drug Amount ([3]; T = 15 days at 2-8 C, 5 hours release time point, individual sample): 0.41 mg and 0.48 mg and 0.44 mg and 0.36 mg and 0.42 mg and 0.38 mg
Drug Amount ([3]; T = 15 days at 2-8 C, 12 hours release time point, Average of 6): 0.63 mg
Drug Amount ([3]; T = 15 days at 2-8 C, 12 hours release time point, individual sample): 0.60 mg and 0.83 mg and 0.76 mg and 0.46 mg and 0.64 mg and 0.51 mg
Drug Amount ([3]; T = 15 days at 2-8 C, 22 hours release time point, Average of 6): 0.18 mg
Drug Amount ([3]; T = 15 days at 2-8 C, 22 hours release time point, individual sample): 0.15 mg and 0.28 mg and 0.25 mg and 0.10 mg and 0.17 mg and 0.12 mg
Drug Amount ([3]; Time Zero, 1 hour release time point, Average of 6): 0.21 mg
Drug Amount ([3]; Time Zero, 2 hours release time point, Average of 6): 0.33 mg
Drug Amount ([3]; Time Zero, 3 hours release time point, Average of 6): 0.28 mg
Drug Amount ([3]; Time Zero, 5 hours release time point, Average of 6): 0.41 mg
Drug Amount ([3]; Time Zero, 12 hours release time point, Average of 6): 0.63 mg
Drug Amount ([3]; Time Zero, 22 hours release time point, Average of 6): 0.17 mg
Drug Amount ([3]; Time Zero, sample solution of 1 hour release time point, individual sample): 0.21 mg and 0.2 mg (2×) and 0.19 mg and 0.24 mg and 0.22 mg
Drug Amount ([3]; Time Zero, sample solution of 2 hours release time point, individual sample): 0.33 mg (2×) and 0.34 mg and 0.32 mg (2×) and 0.31 mg
Drug Amount ([3]; Time Zero, sample solution of 3 hours release time point, individual sample): 0.28 mg (3×) and 0.3 mg and 0.26 mg (2×)
Drug Amount ([3]; Time Zero, sample solution of 5 hours release time point, individual sample): 0.41 mg and 0.48 mg and 0.43 mg and 0.36 mg and 0.42 mg and 0.37 mg
Drug Amount ([3]; Time Zero, sample solution of 12 hours release time point, individual sample): 0.59 mg and 0.85 mg and 0.75 mg and 0.45 mg and 0.63 mg and 0.51 mg
Drug Amount ([3]; Time Zero, sample solution of 22 hours release time point, individual sample): 0.15 mg and 0.27 mg and 0.24 mg and 0.09 mg and 0.17 mg and 0.12 mg
solubility ([4]; 10 mM PBS, pH 7.4, aqueous buffer, thermodynamic from solid): ~1200 µg/mL (≈ 4.18 mM)
Zolmitriptan Concentration (saturated solution) ([4]; 10 mM PBS, pH 7.4, mixed 24 hours, room temperature): 1213.19 µg/mL
solubility thermodynamic at 2 h ([4]; 10 mM phosphate buffer saline, aqueous buffer, thermodynamic from solid, 10 mM PBS, pH 7.4, mixed 2 hours, room temperature, read-out: Zolmitriptan Concentration (saturated solution)): 1240 µg/mL (≈ 4.3 mM)
Zolmitriptan Concentration (saturated solution) ([4]; 100% IPA, mixed 2 hours, room temperature): 1691.82 µg/mL
Zolmitriptan Concentration (saturated solution) ([4]; HPLC grade Water, mixed 2 hours, room temperature): 944.05 µg/mL
Zolmitriptan Concentration (saturated solution) ([4]; HPLC grade Water, mixed 24 hours, room temperature): 1061.33 µg/mL
solubility ([4]; isopropyl alcohol (IPA), organic solvent or mixture, thermodynamic from solid): ~1700 µg/mL (≈ 5.92 mM)
solubility ([4]; water, thermodynamic from solid): ~1000 µg/mL (≈ 3.48 mM)
volume of saturated solution in PBS (Sink condition; for 1.9 mg of zolmitriptan released from the M207 patch): ~1.6 mL
volume of release medium at which sink condition was met (Sink condition; water and 10 mM PBS medium, 1.9 mg zolmitriptan): > 6 mL
